Where “and” joins values, the source holds several entries; their conditions need not be identical. Equal entries are not always repeated.
Tests used:
[1] = tested on: primary human cardiomyocytes (HCMs); assay: inhibition of TGF-beta 1 induced human cardiomyocyte hypertrophy; format: cell-based; settings: TGF-β1 5 ng/mL
Method: Methods (Inhibition of Human Cardiac Hypertrophy In Vitro): primary human cardiomyocytes (HCMs) were grown in growth media to 50% confluence and then were subjected to serum starvation for 24 hrs. After that, 5 ng/mL of the cytokine TGFβ-1 (R&D Systems) was added to the media for 48 hrs to induce HCM hypertrophy. […] Normal cell buffer served as a vehicle only control, where TGFP-1 alone served as the positive control. Analysis for cell surface area (μm^2) was performed using the ImageJ software at the end of the study.
Results: to further support the cGMP generation in human primary cells leads to favorable biological GC-A mediated, the anti-hypertrophic effects were assessed of Compound 19 on live HCMs stressed with TGF-β1 (5 ng/mL), using a state-of-the-art live cell imaging platform (IncuCyte System).

pGC-A = molecular target: T1, pGC-A (Homo sapiens, UniProt P16066); assay: cGMP production by HTRF in HEK293 cells overexpressing pGC-A; format: cell-based; settings: for Emax: HEK293, cGMP normalized to maximal amount produced by an EC80 concentration of ANP, read-out: Max efficacy; for EC50: HEK293 pGC-A cells, cGMP HTRF, in the presence of EC20 concentration of ANP
T1 construct: expressed in transfected cells; host or cells: HEK293
T1 sequence (P16066 33-1061): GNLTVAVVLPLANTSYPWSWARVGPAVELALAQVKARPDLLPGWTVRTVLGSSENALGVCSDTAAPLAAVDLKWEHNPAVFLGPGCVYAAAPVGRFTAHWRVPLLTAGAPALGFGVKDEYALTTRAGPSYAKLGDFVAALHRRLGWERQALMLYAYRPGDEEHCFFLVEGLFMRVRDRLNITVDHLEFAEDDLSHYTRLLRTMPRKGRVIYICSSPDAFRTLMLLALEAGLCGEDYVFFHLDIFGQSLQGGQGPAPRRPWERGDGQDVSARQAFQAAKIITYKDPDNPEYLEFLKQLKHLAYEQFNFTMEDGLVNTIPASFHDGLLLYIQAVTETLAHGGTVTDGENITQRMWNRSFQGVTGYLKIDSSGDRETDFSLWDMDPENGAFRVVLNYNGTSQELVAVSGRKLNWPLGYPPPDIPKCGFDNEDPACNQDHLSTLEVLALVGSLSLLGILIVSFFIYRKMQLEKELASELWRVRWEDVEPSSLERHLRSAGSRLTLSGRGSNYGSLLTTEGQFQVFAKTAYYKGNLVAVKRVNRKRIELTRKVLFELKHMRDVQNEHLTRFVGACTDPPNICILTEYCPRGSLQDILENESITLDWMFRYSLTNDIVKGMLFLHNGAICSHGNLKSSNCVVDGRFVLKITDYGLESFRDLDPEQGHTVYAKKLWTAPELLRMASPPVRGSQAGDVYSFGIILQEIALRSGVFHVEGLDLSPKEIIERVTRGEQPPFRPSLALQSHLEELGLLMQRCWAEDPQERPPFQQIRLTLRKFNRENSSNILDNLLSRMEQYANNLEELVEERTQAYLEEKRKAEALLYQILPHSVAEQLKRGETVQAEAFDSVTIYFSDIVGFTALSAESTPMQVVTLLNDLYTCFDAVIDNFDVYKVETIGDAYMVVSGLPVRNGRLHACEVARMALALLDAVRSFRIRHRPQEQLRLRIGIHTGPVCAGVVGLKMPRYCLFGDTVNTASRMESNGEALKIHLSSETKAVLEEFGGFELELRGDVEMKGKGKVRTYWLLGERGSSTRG
T1 sequence (P01160 124-151 partner limits assumed): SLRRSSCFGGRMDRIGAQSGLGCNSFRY
Method: Assay details: 20 nL of 10 μM test compound in DMSO was added to columns 5-48 of 1536 well white high base screening plates (Corning, New York, N.Y.) cells using 550 ECHO acoustic dispenser (Labcyte, San Jose, Calif.). […] HEK293 cells overexpressing GC-A were resuspended in assay media (OptimMem media containing 2% Heat-inactivated Fetal bovine serum and L-glutamine) at a density of 6×10^5 cells/mL and 2 μL were plated in screening plates (1200 cells/well) in suspension using a Bioraptr 2. Plates were spun at 1000 rpm for 1 min and incubated for 30 min at room temperature. 1.5 μL d2-labled cGMP followed by 1.5 uL Eu^3+ cryptate-labeled anti-cGMP cGMP detection kit (CiBio; #62GM2PEC) prepared according to manufacturer's protocol were added to all wells using a Bioraptr 2 and TR-FRET signal was detected on an EnVision detector (PerkinElmer).

in vitro solubility = format: physicochemical; settings: FIG. 3
[2] = rodent microsomal stability; format: in vitro ADME; settings: FIG. 3

SMILES | Emax (pGC-A) [%] | EC50 (pGC-A) | further results
CC[C@H](C)[C@@H]1NC(=O)[C@H](CCCNC(=N)N)NC(=O)[C@H](CC(=O)O)NC(=O)[C@H](CCSC)NC(=O)[C@H](CCCNC(=N)N)NC(=O)CNC(=O)CNC(=O)[C@H](Cc2ccccc2)NC(=O)[C@@H](NC(=O)[C@H](CO)NC(=O)[C@H](CO)NC(=O)[C@H](CCCNC(=N)N)NC(=O)[C@H](CCCNC(=N)N)NC(=O)[C@H](CC(C)C)NC(=O)[C@@H](N)CO)CSSC[C@@H](C(=O)N[C@@H](CC(N)=O)C(=O)N[C@@H](CO)C(=O)N[C@@H](Cc2ccccc2)C(=O)N[C@@H](CCCNC(=N)N)C(=O)N[C@@H](Cc2ccc(O)cc2)C(=O)O)NC(=O)CNC(=O)[C@H](CC(C)C)NC(=O)CNC(=O)[C@H](CO)NC(=O)[C@H](CCC(N)=O)NC(=O)[C@H](C)NC(=O)CNC1=O [ANP, reference compound] | – | – | inhibition of HCM hypertrophy ([1]; ANP 10^−8 M alone): significant inhibition; inhibition of HCM hypertrophy ([1]; ANP 10^−10 M alone): no effect
CC(C)(C)C(=O)N1CCC(C(=O)Nc2nc3c(F)cc(F)cc3s2)CC1 [Compound 1] | 83 | 2180 nM and 1380 nM and 1570 nM | potency compared to compound A (pGC-A; HEK pGC-A cGMP, FIG. 2-3): improved potency; Max efficacy (pGC-A; cGMP normalized to maximal amount produced by an EC80 concentration of ANP): 76% and 77%; solubility compared to compound A (in vitro solubility): improved; rodent microsomal stability compared to compound A [2]: improved
O=C(Nc1nc2c(F)cc(F)cc2s1)C1CCN(C(=O)C2CCC2)CC1 [Compound 2] | 79 | 1720 nM | –
CC(=O)N1CCC(C(=O)Nc2nc3c(F)cc(F)cc3s2)CC1 [Compound 3] | 74 | 1150 nM | –
CC(C)N1CCC(C(=O)Nc2nc3c(F)cc(F)cc3s2)CC1 [Compound 4] | 80 | 840 nM | –
CC(C)(C)C(=O)N1CCC(C(=O)Nc2nc3c(Cl)ccc(Cl)c3s2)CC1 [Compound 5] | – | > 66000 nM | –
CC(C)(C)C(=O)N1CCC(C(=O)Nc2nc3c(Cl)cccc3s2)CC1 [Compound 6] | 51 | 2000 nM | –
CC(C)(C)OC(=O)N1CCCC(C(=O)Nc2nc3c(F)cc(F)cc3s2)C1 (centres unmarked) [Compound 7] | 64 | 8260 nM | –
CC(C)(C)C(=O)N1CCCC(C(=O)Nc2nc3c(F)cc(F)cc3s2)C1 (centres unmarked) [Compound 8] | 73 | 5070 nM | –
O=C(Nc1nc2c(F)cc(F)cc2s1)C1CCCN(C(=O)C2CC2)C1 (centres unmarked) [Compound 9] | 82 | 1970 nM | –
O=C(Nc1nc2c(F)cc(F)cc2s1)C1CCCN(C(=O)C2CCC2)C1 (centres unmarked) [Compound 10] | 77 | 1810 nM | –
CC(=O)N1CCCC(C(=O)Nc2nc3c(F)cc(F)cc3s2)C1 (centres unmarked) [Compound 11] | 79 | 1650 nM | –
O=C(Nc1nc2c(F)cc(F)cc2s1)C1CCCN(C(=O)c2ccccc2)C1 (centres unmarked) [Compound 12] | 64 | 3360 nM | –
CC(C)(C)CC(=O)N1CCCC(C(=O)Nc2nc3c(F)cc(F)cc3s2)C1 (centres unmarked) [Compound 13] | 74 | 3570 nM | –
O=C(Nc1nc2c(F)cc(F)cc2s1)C1CCCN(C(=O)Cc2ccccc2)C1 (centres unmarked) [Compound 14] | 71 | 2020 nM | –
CS(=O)(=O)N1CCCC(C(=O)Nc2nc3c(F)cc(F)cc3s2)C1 (centres unmarked) [Compound 15] | 77 | 1750 nM | –

SMILES | Emax (pGC-A) [%] | EC50 (pGC-A) | further results
O=C(Nc1nc2c(F)cc(F)cc2s1)C1CCCN(Cc2ccccc2)C1 (centres unmarked) [Compound 16] | 66 | 2410 nM | –
CN1CCCC(C(=O)Nc2nc3c(F)cc(F)cc3s2)C1 (centres unmarked) [Compound 17] | 81 | 1230 nM | –
O=C(Nc1nc2c(F)cc(F)cc2s1)C1CCCNC1 (centres unmarked) [Compound 18] | 82 | 1050 nM | –
CC(C)(C)OC(=O)N1CCC(C(=O)Nc2nc3c(F)cc(F)cc3s2)C1 (centres unmarked) [Compound 20] | 74 | 4380 nM | –
CC(C)(C)C(=O)N1CCC(C(=O)Nc2nc3c(F)cc(F)cc3s2)C1 (centres unmarked) [Compound 21] | 84 | 2090 nM | –
O=C(Nc1nc2c(F)cc(F)cc2s1)C1CCN(C(=O)C2CC2)C1 (centres unmarked) [Compound 22] | 82 | 6250 nM | –
O=C(Nc1nc2c(F)cc(F)cc2s1)C1CCN(C(=O)C2CCC2)C1 (centres unmarked) [Compound 23] | 82 | 6060 nM | –
CC(=O)N1CCC(C(=O)Nc2nc3c(F)cc(F)cc3s2)C1 (centres unmarked) [Compound 24] | 84 | 560 nM | –
O=C(Nc1nc2c(F)cc(F)cc2s1)C1CCN(C(=O)c2ccccc2)C1 (centres unmarked) [Compound 25] | 84 | 6860 nM | –
CC(C)(C)CC(=O)N1CCC(C(=O)Nc2nc3c(F)cc(F)cc3s2)C1 (centres unmarked) [Compound 26] | 81 | 3230 nM | –
O=C(Nc1nc2c(F)cc(F)cc2s1)C1CCN(C(=O)Cc2ccccc2)C1 (centres unmarked) [Compound 27] | 66 | 2690 nM | –
CS(=O)(=O)N1CCC(C(=O)Nc2nc3c(F)cc(F)cc3s2)C1 (centres unmarked) [Compound 28] | 66 | 990 nM | –
CN1CCC(C(=O)Nc2nc3c(F)cc(F)cc3s2)C1 (centres unmarked) [Compound 30] | 84 | 1790 nM | –
O=C(Nc1nc2c(F)cc(F)cc2s1)C1CCNC1 (centres unmarked) [Compound 31] | 84 | 1570 nM | –
CN(C)CCN1CCC(C(=O)Nc2nc3c(F)cc(F)cc3s2)C1 (centres unmarked) [Compound 32] | 81 | 1630 nM | –
